The source of these data is publication PMC9516332 (Frontiers in Oncology, 2022).

Each structure is given as a SMILES string. Read-outs that look alike come from different tables or passages of the source.

Test in all cases: Kinase panel profiling at 1 µmol/L (MSA or IMAP), percentage inhibition
Holding throughout (format): biochemical

Assay [1] deals with panel of 255 wild-type kinases (Homo sapiens, UniProt Q9HBH9). Particulars: MNK2; 1 µmol/L single concentration; read-out: %-inhibition, MNK2.
The target of assay [2] is panel of 255 wild-type kinases (Homo sapiens, UniProt P54646). Particulars: AMPKα2/β1/γ1 kinase assay; 1 µmol/L single concentration; read-out: %-inhibition AMPKα2/β1/γ1.
Assay [3] deals with panel of 255 wild-type kinases (Homo sapiens, UniProt P31751). Particulars: AKT2 kinase assay; 1 µmol/L single concentration; read-out: %-inhibition AKT2.
The target in assay [4] is panel of 255 wild-type kinases (Homo sapiens, UniProt Q15303). Particulars: read-out: %-inhibition at 1 µmol/L, HER4.
Assay [5] has as its target panel of 255 wild-type kinases (Homo sapiens, UniProt P45983). Particulars: kinase JNK1; 1 µmol/L single concentration; read-out: %-inhibition at 1 µmol/L, JNK1.
Assay [6] deals with panel of 255 wild-type kinases (Homo sapiens, UniProt Q13555). Particulars: CaMK2γ kinase assay; 1 µmol/L single concentration; read-out: %-inhibition CaMK2γ.
Assay [7] addresses panel of 255 wild-type kinases (Homo sapiens, UniProt Q14012). Particulars: CaMK1α kinase assay; 1 µmol/L single concentration; read-out: %-inhibition CaMK1α.
The target of assay [8] is panel of 255 wild-type kinases (Homo sapiens, UniProt O14578). Conditions: kinase CRIK; 1 µmol/L single concentration; read-out: %-inhibition at 1 µmol/L, CRIK.
The target in assay [9] is panel of 255 wild-type kinases (Homo sapiens, UniProt Q9HC98). Conditions: NEK6; 1 µmol/L single concentration; read-out: %-inhibition, NEK6.
In assay [10] the target is T1, panel of 255 wild-type kinases (Homo sapiens, UniProt Q12851).
T1 sequence (Q12851 1-820): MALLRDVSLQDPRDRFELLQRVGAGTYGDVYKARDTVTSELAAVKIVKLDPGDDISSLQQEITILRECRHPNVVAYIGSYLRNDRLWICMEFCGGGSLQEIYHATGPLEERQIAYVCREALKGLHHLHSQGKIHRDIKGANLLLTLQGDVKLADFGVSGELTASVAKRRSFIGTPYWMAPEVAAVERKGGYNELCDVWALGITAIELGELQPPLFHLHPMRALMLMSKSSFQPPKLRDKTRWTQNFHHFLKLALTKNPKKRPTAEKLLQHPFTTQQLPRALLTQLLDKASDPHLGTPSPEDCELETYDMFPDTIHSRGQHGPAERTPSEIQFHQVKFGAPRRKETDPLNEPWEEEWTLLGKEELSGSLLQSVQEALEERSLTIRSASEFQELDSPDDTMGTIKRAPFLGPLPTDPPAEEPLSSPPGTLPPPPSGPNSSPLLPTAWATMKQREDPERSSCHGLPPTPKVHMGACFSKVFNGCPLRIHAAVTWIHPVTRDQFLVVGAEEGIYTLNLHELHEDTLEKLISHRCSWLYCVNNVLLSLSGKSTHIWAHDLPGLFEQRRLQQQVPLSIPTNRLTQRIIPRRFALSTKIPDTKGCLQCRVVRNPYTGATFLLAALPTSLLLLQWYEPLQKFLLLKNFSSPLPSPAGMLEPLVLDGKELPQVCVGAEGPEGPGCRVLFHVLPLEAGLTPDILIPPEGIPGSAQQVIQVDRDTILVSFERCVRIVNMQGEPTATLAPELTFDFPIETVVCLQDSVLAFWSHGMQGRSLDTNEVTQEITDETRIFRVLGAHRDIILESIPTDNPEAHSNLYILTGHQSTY
Conditions: kinase MAP4K2; 1 µmol/L single concentration; read-out: %-inhibition at 1 µmol/L, MAP4K2.

For assay [11], the target named is panel of 255 wild-type kinases (Homo sapiens, UniProt P06213). Particulars: kinase INSR; 1 µmol/L single concentration; read-out: %-inhibition at 1 µmol/L, INSR.
For assay [12], the target named is panel of 255 wild-type kinases (Homo sapiens, UniProt Q96RG2). Particulars: PASK; 1 µmol/L single concentration; read-out: %-inhibition, PASK.
For assay [13], the target named is panel of 255 wild-type kinases (Homo sapiens, UniProt Q16654). Conditions: kinase PDHK4; 1 µmol/L single concentration; read-out: %-inhibition at 1 µmol/L, PDHK4.
For assay [14], the target named is panel of 255 wild-type kinases (Homo sapiens, UniProt P07948). Conditions: kinase LYNa; 1 µmol/L single concentration; read-out: %-inhibition at 1 µmol/L, LYNa.
In assay [15] the target is panel of 255 wild-type kinases (Homo sapiens, UniProt P24941). Particulars: 1 µmol/L single concentration.
Assay [16] concerns the target panel of 255 wild-type kinases (Homo sapiens, UniProt P48730). Particulars: kinase CK1δ; 1 µmol/L single concentration; read-out: %-inhibition at 1 µmol/L, CK1δ.
Assay [17] deals with panel of 255 wild-type kinases (Homo sapiens, UniProt P49759). Conditions: kinase CLK1; 1 µmol/L single concentration; read-out: %-inhibition at 1 µmol/L, CLK1.
The mark [18] stands for this setting: kinase HER4, 1 µmol/L single concentration.
The mark [19] stands for this setting: CDK2/CycA2 kinase assay, read-out: %-inhibition CDK2/CycA2.
[20] abbreviates: CDK2/CycE1 kinase assay, read-out: %-inhibition CDK2/CycE1.

As to `Cn1cc(-c2cc3c(N4CCN(c5ncc([C@@](C)(N)c6ccc(F)cc6)cn5)CC4)ncnn3c2)cn1` [avapritinib], the inhibition at 1 µM in assay [1] was 29%; in [2], 3%; in [3], -0.192%; in assay [4] (setting [18]) it was 25%; in assay [5], -4.54%; in assay [6], -4%. The inhibition at 1 µM in assay [7] was -9%; in assay [8], -0.548%; in assay [9], -1.13%; in assay [10], 14%; in [11], 4.71%; in assay [12], 13%. Moreover, the inhibition at 1 µM in assay [13] was 5.61%; in assay [14], 87%; in [15] (setting [19]) it was -0.664%; in assay [15] (setting [20]) it was -37%; in assay [16], 11%.
Regarding `C[C@H](Nc1ncnc2nc[nH]c12)c1cc2cccc(Cl)c2c(=O)n1-c1ccccc1` [duvelisib], the inhibition at 1 µM in [1] is 7%; in [2], -0.155%; in [3], -0.908%; in assay [4] (setting [18]) it was -0.702%; in assay [5] it was 0.533%; in assay [17], -0.419%. For the same compound, the inhibition at 1 µM in [6] was 0.463%; in [7] it was -5.33%; in assay [8] it was -3.16%; in [9], -1%; in [10], 2.36%; in assay [11], -0.398%. The inhibition at 1 µM in [12] is -0.608%; in assay [13] it was 3%; in assay [14], 0.825%; in assay [15] (setting [19]), -0.854%; in assay [15] (setting [20]) it was -11%; in assay [16] it was -4.49%.
`COc1cc2ncnc(Nc3ccc(F)c(Cl)c3)c2cc1NC(=O)/C=C/CN1CCCCC1` [dacomitinib]: the inhibition at 1 µM in [1] was 76%; in assay [2] it was -3%; in assay [3], -1.19%; in [4] (setting [18]) it was 103%; in assay [5], 1.07%; in assay [17], 19%. In addition, the inhibition at 1 µM in [6] is 2.37%; in assay [7], -7%; in assay [8] it was 32%; in assay [9], -4.7%; in assay [10], -2.38%; in [11], 1.81%. Moreover, the inhibition at 1 µM is 5.35% in assay [12]; 3% in assay [13]; 79% in assay [14]; -13% in assay [15] (setting [19]); -16% in assay [15] (setting [20]); -6.63% in [16].
Take `CCN1CCN(c2ccc(Nc3cc(N(C)C(=O)Nc4c(Cl)c(OC)cc(OC)c4Cl)ncn3)cc2)CC1` [infigratinib]: the inhibition at 1 µM in assay [1] was -1.83%; in assay [2] it was -2%; in assay [3], -0.769%; in [4] (setting [18]), 26%; in assay [5] it was -3.19%; in [17], 10%. Also, the inhibition at 1 µM was -3.37% in assay [6]; -22% in [7]; -2.56% in [8]; -2.62% in assay [9]; 23% in [10]; 17% in [11]. The inhibition at 1 µM was -1.46% in assay [12]; -1.46% in [13]; 84% in assay [14]; 11% in assay [15] (setting [19]); -33% in assay [15] (setting [20]); -4.4% in [16].
Take `Cn1cnc2c(F)c(Nc3ccc(Br)cc3Cl)c(C(=O)NOCCO)cc21` [selumetinib]: the inhibition at 1 µM in [1] is -0.47%; in [2], 1.9%; in assay [3], 0.316%; in assay [4] (setting [18]), 33%; in [5], -4.74%; in assay [17] it was 5%. Besides, the inhibition at 1 µM was -3% in assay [6]; -4.36% in assay [7]; -2.33% in assay [8]; -1.5% in [9]; 2.67% in assay [10]; 3% in assay [11]. Also, the inhibition at 1 µM was -2% in assay [12]; 0.425% in assay [13]; 6.53% in assay [14]; 1.44% in assay [15] (setting [19]); -55% in [15] (setting [20]); -1.44% in [16].
For the compound `C=CC(=O)N1CCC([C@@H]2CCNc3c(C(N)=O)c(-c4ccc(Oc5ccccc5)cc4)nn32)CC1` [zanubrutinib], the inhibition at 1 µM in assay [1] is -5%; in assay [2], -5%; in [3] it was -4%; in assay [4], 99%; in assay [5], -3.49%; in [17] it was 4.66%. In addition, the inhibition at 1 µM in [6] is 1.6%; in [7], -0.157%; in assay [8], -2.4%; in assay [9], -1%; in [10], -2.68%; in assay [11] it was 4%. The inhibition at 1 µM is -2.55% in assay [12]; 0.136% in assay [13]; -2.82% in assay [15] (setting [19]); -15% in assay [15] (setting [20]); -4% in assay [16].
